Reference: patent US12559494B2, “Functionalized lactams as modulators of the 5-hydroxytryptamine receptor 7 and their method of use” (Temple University - Of The Commonwealth System of Higher …, priority 2018, dated 2026)
Counter-ions that a name gives are not always drawn. Like-named read-outs stand apart in the source and are kept apart here. Values belong to the compound of their own block, whether it stands above or below them.

Key:
5HT7 receptors [1] = target: T1, 5HT7 receptors (Homo sapiens, UniProt P34969); experiment: Functional data (Kb), HitHunter cAMP enzyme fragment complementation assay with 5-HT as agonist; assay type: cell-based; parameters: expressed in transfected cells; G418 selection)
T1 sequence (P34969 whole entry, the tested form may be a part): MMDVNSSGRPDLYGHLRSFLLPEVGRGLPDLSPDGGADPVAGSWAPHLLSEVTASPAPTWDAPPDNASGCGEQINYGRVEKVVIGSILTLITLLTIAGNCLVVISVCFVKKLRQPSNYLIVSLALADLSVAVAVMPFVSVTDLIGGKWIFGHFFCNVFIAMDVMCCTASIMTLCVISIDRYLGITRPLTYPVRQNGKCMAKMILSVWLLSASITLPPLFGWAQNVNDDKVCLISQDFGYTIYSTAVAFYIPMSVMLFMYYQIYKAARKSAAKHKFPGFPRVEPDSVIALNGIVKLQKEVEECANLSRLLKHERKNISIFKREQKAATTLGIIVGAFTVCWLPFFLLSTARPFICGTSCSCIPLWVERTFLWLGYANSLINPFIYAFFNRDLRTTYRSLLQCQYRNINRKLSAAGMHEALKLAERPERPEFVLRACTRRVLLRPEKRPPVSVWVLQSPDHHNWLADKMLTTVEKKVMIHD
Method: Functional efficacy of the compounds of the disclosure on 5-HT7 serotonin receptors were measured in a cell based cAMP enzyme fragment complementation assay using the HitHunter cAMP assay (DiscoveRx). Cells stably expressing human 5HT7 receptors were plated in 96-well plates at 4000 cells/well, 16-20 hours prior to assay in growth media (Ultraculture medium, 2 mM GlutaMax and G418 1 mg/mL. Serial dilutions of the agonist, 5-hydroxytryptamine (5-HT), were prepared in a final concentration range of 10 μM to 10 nM. Compounds of the disclosure were prepared in 3-fold serial dilutions to obtain a final concentration range of 10 μM to 0.1 nM. Compounds of the disclosure are tested for agonist activity in the absence of 5-HT and antagonist activity in the presence of 5-HT. For the cAMP assay, the protocol was followed according to the instructions provided by the supplier. Briefly, cells were incubated with a compound of the disclosure for 30 minutes at 37° C. prior to addition of EC70 concentration of 5-HT. After an additional 30 minutes, cAMP antibody/cell lysis solution was added (20 μL/well) and incubated for 60 minutes at room temperature. cAMP XS+EA reagent is added (20 μL/well) and incubated for 2 hours at room temperature. Luminescence was read on the Envision Multilabel plate reader.

5HT7 receptors [2] = target: T1, 5HT7 receptors; experiment: Radiolabeled binding (IC50 and Ki), [3H]LSD competition on membranes of cells expressing recombinant 5HT7 receptors; parameters: expressed in transfected cells
Method: Radiolabel Binding Studies for Serotonin 5HT7 Receptors, Method 1:
(§1) A solution of the compound of the disclosure to be tested is prepared as a 1-mg/ml stock in Assay Buffer or DMSO according to its solubility. A similar stock of the reference compound chlorpromazine is also prepared as a positive control. Eleven dilutions (5×assay concentration) of the compound of the disclosure and chlorpromazine are prepared in the Assay Buffer by serial dilution to yield final corresponding assay concentrations ranging from 10 pM to 10 μM.
A stock concentration of 5 nM [^3H]LSD (lysergic acid diethyl amide) is prepared in 50 mM Tris-HCl, 10 mM MgCl2, 1 mM EDTA, pH 7.4 (Assay Buffer). Aliquots (50 μl) of radioligand are dispensed into the wells of a 96-well plate containing 100 μl of Assay Buffer. Duplicate 50-μl aliquots of the compound of the disclosure test and chlorpromazine positive control reference compound serial dilutions are added.
Membrane fractions of cells expressing recombinant 5HT7 receptors (50 μL) are dispensed into each well. The membranes are prepared from stably transfected cell lines expressing 5HT7 receptors cultured on 10-cm plates by harvesting PBS-rinsed monolayers, resuspending and lysing in chilled, hypotonic 50 mM Tris-HCl, pH 7.4, centrifuging at 20,000×g, decanting the supernatant and storing at −80° C.; the membrane preparations are resuspended in 3 ml of chilled Assay Buffer and homogenized by several passages through a 26 gauge needle before using in the assay.
The 250-μl reactions are incubated at room temperature for 1.5 hours, then harvested by rapid filtration onto 0.3% polyethyleneimine-treated, 96-well filter mats using a 96-well Filtermate harvester. Four rapid 500-μl washes are performed with chilled Assay Buffer to reduce non-specific binding. The filter mats are dried, then scintillant is added to the filters and the radioactivity retained on the filters is counted in a Microbeta scintillation counter.
Raw data (dpm) representing total radioligand binding (i.e., specific+non-specific binding) are plotted as a function of the logarithm of the molar concentration of the competitor (i.e., test or reference compound). Non-linear regression of the normalized (i.e., percent radioligand binding compared to that observed in the absence of test or reference compound) raw data is performed in Prism 4.0 (GraphPad Software) using the built-in three parameter logistic model describing ligand competition binding to radioligand-labeled sites: y=bottom+[(top-bottom)/(1+10×−logIC50)] where bottom equals the residual radioligand binding measured in the presence of 10 μM reference compound (i.e., non-specific binding) and top equals the total radioligand binding observed in the absence of competitor. The log IC50 (i.e., the log of the ligand concentration that reduces radioligand binding by 50%) is thus estimated from the data and used to obtain the Ki by applying the Cheng-Prusoff approximation: Ki=IC50/(1+[ligand]/KD) • where [ligand] equals the assay radioligand concentration and KD equals the affinity constant of the radioligand for the target receptor.
^1Radiolabeled Binding (IC50 and K1)
as §1, with “tested was” for “tested is”, “chlorpromazine was” for “chlorpromazine is”, “dilutions (5× assay” for “dilutions (5×assay”, “chlorpromazine were” for “chlorpromazine are”, “[…]” for “10 pM”
A stock concentration of 5 nM [^3H]LSD (lysergic acid diethyl amide) was prepared in 50 mM Tris-HCl, 10 mM MgCl2, 1 mM EDTA, pH 7.4 (Assay Buffer). Aliquots (50 μl) of radioligand were dispensed into the wells of a 96-well plate containing 100 μl of Assay Buffer. […]

[3] = cAMP assay, cells stably expressing human 5HT7 receptors, antagonist activity in the presence of EC70 5-HT, read-out: Kb (nM)^2
[4] = [3H]LSD radioligand, membranes of cells expressing recombinant 5HT7 receptors, read-out: IC50 (nM)^1
[5] = Table 35, scaffold drawing 615, antagonist mode vs 5-HT, read-out: Kb
[6] = Table 35, scaffold drawing 615, read-out: IC50
[7] = Table 37, scaffold drawing 617, antagonist mode vs 5-HT, read-out: Kb

Kb (5HT7 receptors [1]; [3]): 24.1 nM
IC50 (5HT7 receptors [2]; [4]): 28 nM
Compound: CCC1(CC)CC(CCN2CCN(c3ccc(C)cc3)CC2)NC1=O (stereo not drawn) [3,3-diethyl-5-(2-(4-(p-tolyl)piperazin-1-yl)ethyl)pyrrolidin-2-one]

Kb (5HT7 receptors [1]; [3]): 17.8 nM
IC50 (5HT7 receptors [2]; [4]): 68 nM
Compound: CCC1(CC)CC(CCN2CCN(c3ccccc3)CC2)NC1=O (stereo not drawn) [3,3-diethyl-5-(2-(4-phenylpiperazin-1-yl)ethyl)pyrrolidin-2-one]

Kb (5HT7 receptors [1]; [3]): 54.6 nM
IC50 (5HT7 receptors [2]; [4]): 13 nM
Compound: CCC1(CC)CC(CCN2CCN(c3ccc(Cl)cc3)CC2)NC1=O (stereo not drawn) [5-(2-(4-(4-chlorophenyl)piperazin-1-yl)ethyl)-3,3-diethylpyrrolidin-2-one]

Kb (5HT7 receptors [1]; [5]): 0.81 nM
IC50 (5HT7 receptors [2]; [6]): 12.3 nM
Compound: CCC1(CC)C[C@H](CCN2CCN(c3ccc(F)cc3)CC2)NC1=O [(R)-3,3-diethyl-5-(2-(4-(4-fluorophenyl)piperazin-1-yl)ethyl)pyrrolidin-2-one]

Kb (5HT7 receptors [1]; [5]): 8.43 nM
Ki (5HT7 receptors [2]; Table 35, scaffold drawing 615): 11 nM
Compound: CCC1(CC)C[C@H](CCN2CCN(c3ccc(C)cc3)CC2)NC1=O [(R)-3,3-diethyl-5-(2-(4-(p-tolyl)piperazin-1-yl)ethyl)pyrrolidin-2-one]

Kb (5HT7 receptors [1]; Table 36, scaffold drawing 616, antagonist mode vs 5-HT, read-out: Kb): 58.1 nM
Ki (5HT7 receptors [2]; Table 36, scaffold drawing 616): 79 nM
Compound: CCC1(CC)C[C@@H](CCN2CCN(c3ccc(C)cc3)CC2)NC1=O [(S)-3,3-diethyl-5-(2-(4-(p-tolyl)piperazin-1-yl)ethyl)pyrrolidin-2-one]

Second part, the compound before the results:

Compound: CCC1(CC)CC(CCN2CCN(c3ccc(C)cc3N3CCOCC3)CC2)NC1=O (stereo not drawn) [3,3-diethyl-5-(2-(4-(4-methyl-2-morpholinophenyl)piperazin-1-yl)ethyl)pyrrolidin-2-one]
Kb (5HT7 receptors [1]; [3]): 59.3 nM
IC50 (5HT7 receptors [2]; [4]): 74 nM

Compound: CCC1(CC)C[C@H](CN2CCN(c3ccc(C)cc3N3CCOCC3)CC2)NC1=O [(R)-3,3-diethyl-5-((4-(4-methyl-2-morpholinophenyl)piperazin-1-yl)methyl)pyrrolidin-2-one formate]
Kb (5HT7 receptors [1]; [5]): 43.8 nM
Ki (5HT7 receptors [2]; Table 35, scaffold drawing 615): 132 nM

Compound: CCC1(CC)C[C@H](CCN2CCN(c3ccc(Cl)c(Cl)c3)CC2)NC1=O [(R)-5-(2-(4-(3,4-dichlorophenyl)piperazin-1-yl)ethyl)-3,3-diethylpyrrolidin-2-one]
Kb (5HT7 receptors [1]; [5]): 6.19 nM
IC50 (5HT7 receptors [2]; [6]): 82.8 nM

Compound: CCC1(CC)C[C@H](CCN2CCN(c3ccc(F)c(Cl)c3)CC2)NC1=O [(R)-5-(2-(4-(3-chloro-4-fluorophenyl)piperazin-1-yl)ethyl)-3,3-diethylpyrrolidin-2-one]
Kb (5HT7 receptors [1]; [5]): 1.92 nM
IC50 (5HT7 receptors [2]; [6]): 8.7 nM

Compound: CCC1(CC)C[C@H](CCN2CCN(c3cccc(Cl)c3)CC2)NC1=O [(R)-5-(2-(4-(3-chlorophenyl)piperazin-1-yl)ethyl)-3,3-diethylpyrrolidin-2-one]
Kb (5HT7 receptors [1]; [5]): 1.38 nM
IC50 (5HT7 receptors [2]; [6]): 9.9 nM

Compound: CC(=O)N1CCC2(CC1)C[C@H](CCN1CCN(c3cccc(Cl)c3)CC1)NC2=O [drawing 617 n=2 R3=3-Cl-Phenyl R7=Acetyl, (R)-8-acetyl-3-(2-(4-(3-chlorophenyl)piperazin-1-yl)ethyl)-2,8-diazaspiro[4.5]decan-1-one]
Kb (5HT7 receptors [1]; [7]): 5.04 nM
Ki (5HT7 receptors [2]; Table 37, scaffold drawing 617): 63 nM

Compound: CS(=O)(=O)N1CCC2(CC1)C[C@H](CCN1CCN(c3cccc(Cl)c3)CC1)NC2=O [drawing 617 n=2 R3=3-Cl-Phenyl R7=MeSO2, (R)-3-(2-(4-(3-chlorophenyl)piperazin-1-yl)ethyl)-8-(methylsulfonyl)-2,8-diazaspiro[4.5]decan-1-one]
Kb (5HT7 receptors [1]; [7]): 13.5 nM
Ki (5HT7 receptors [2]; Table 37, scaffold drawing 617): 107 nM

Compound: CC(=O)N1CCC2(CC1)C[C@H](CCN1CCN(c3ccc(F)cc3)CC1)NC2=O [drawing 617 n=2 R3=4-F-Phenyl R7=Acetyl, (R)-8-acetyl-3-(2-(4-(4-fluorophenyl)piperazin-1-yl)ethyl)-2,8-diazaspiro[4.5]decan-1-one]
Kb (5HT7 receptors [1]; [7]): 14.4 nM
Ki (5HT7 receptors [2]; Table 37, scaffold drawing 617): 76 nM

Compound: CS(=O)(=O)N1CCC2(CC1)C[C@H](CCN1CCN(c3ccc(F)cc3)CC1)NC2=O [drawing 617 n=2 R3=4-F-Phenyl R7=MeSO2, (R)-3-(2-(4-(4-fluorophenyl)piperazin-1-yl)ethyl)-8-(methylsulfonyl)-2,8-diazaspiro[4.5]decan-1-one]
Kb (5HT7 receptors [1]; [7]): 30.7 nM
Ki (5HT7 receptors [2]; Table 37, scaffold drawing 617): 89 nM
